pEC50, pKi: −log10 of the molar value. ≈ marks a conversion by molar mass, not a printed value. Residues, ends and D or L forms follow the SMILES beside them.
Assays:
[1] = target: T1, human NMUR2 receptor (Homo sapiens, UniProt Q9GZQ4); assay: Radioligand binding competition assay (RLB), human NMUR2 receptor binding (SPA, [125I]-Neuromedin U-25); parameters: host or cells: CHO-K1; settings: CHO-K1 hNMUR2 cell membranes, 4 hours at RT
Source text: Example 1: Radioligand Binding Competition Assay (RLB) Human NMUR2 Receptor Binding
The test is based on membranes prepared from a Human NMUR2/Apoaequorin Stable Cell Line (Creative Biogene, Cat. No. CSC-RG1309).
Cell Line Description: CHO-NMUR2 cell line is clonally derived from a CHO-K1 cell line, which has been transfected with a bicistronic expression plasmid containing the sequence coding for the human neuromedin U receptor 2 (AF242874.1). MOSAIC-ID: CL16550616.
Membrane preparation: Cells were broken by nitrogen cavitation (900 psi, 1 hour). Intact cells were removed by centrifugation (400 rcf (relative centrifugal force), 10 minutes, 4° C.) before the crude membrane fraction was collected by ultracentrifugation (20.000 rcf, 1 hour, 4° C.).
2) Human NMUR2 Receptor Binding Assay (Radioligand: [125I]-Neuromedin U-25 (Human))
In this Scintillation Proximity Assay (SPA) design, the membranes immobilize directly to the PVT-WGA-PEI type A beads (polyethyleneimine treated polyvinyltoluene beads coupled to wheatgerm agglutinin, Perkin Elmer) via interactions of wheat germ agglutinate and glycosylated membrane structures. Thereby the radioactively la-belled ligand, bound to NMUR2 receptors on the membrane, comes in close proximity to the solid scintillator of the PVT bead. Radioactive human neuromedin U-25 then stimulates the scintillant to emit light. In contrast, radioligand not bound to the receptor is too distant from the bead to elicit a signal.
For the Scintillation Proximity Assay the CHO-K1 hNMUR2 cell membranes and SPA-beads are diluted to concentrations, which assure a robust signal to background ratio. The SPA incubation buffer consists of 25 mM Hepes (pH=7.0), 5 mM MgCl2, 1 mM CaCl2, 10 ug/mL Saponine and 0.1% bovine serum albumin and is used for all dilutions.
Final assay setup in 96-well plate: 20 μL of 10× test compound dilutions+40 μL of 5× [125l]-Neuromedin U-25 (1× approx. 30 pM; 2000 μCi/mmol)+60 μL membrane dilution (approx. 2.5 μg membrane protein)+80 μL SPA bead dilution (0.75 mg).
The assay is incubated for 4 hours at RT, including controls for specific binding where no displacer is added and non-specific binding by adding unlabeled hNMU-25 at 100 nM. Bound radioactivity is determined by scintillation counting (MicroBeta Trilux 1450, Perkin Elmer, detection of 125I decay). […] The system assumes one binding site with no relevant radioligand depletion (<10%) and that the binding is reversible and at equilibrium.

[2] = target: T1, human NMUR2 receptor; assay: IP1 Gq HTRF assay, activation of human NMUR2 in buffer; format: cell-based; parameters: expressed in transfected cells; host or cells: CHO-K1; settings: CHO-K1 cells expressing human NMUR2, stimulation buffer with 0.1% BSA; read-out: EC50 (hNMUR2) buffer
Method in brief: (§1)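 CHO-K1 cells stably expressing human NMUR1 or NMUR2, seeded 24 h before assay, stimulated with peptide agonists (8-point dose-response, 1% DMSO final) in HEPES/HBSS buffer with 50 mM LiCl and 0.1% BSA, pH 7.4, 1 h at 37 °C. IP1 accumulation read by HTRF competition (665/620 nm); EC50 from 4-parameter sigmoidal fit.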

[3] = physchem; format: physicochemical
Method: Example 6: Solubility Determination
Peptides (as TFA-salts) were weighed out in a filter unit (Mini-UniPrep Syringeless Filter 0.45 μm, Whatman PVDF), and 0.1 M phosphate buffer at pH 6 to 8 was added to achieve 10 mg/mL final peptide concentration. The peptides were dissolved by shaking the filter units horizontally at 350 rpm for 2 hours at room temperature. Samples were then filtered to remove any insoluble particles. Controls were prepared by weighing out the corresponding peptide solid material and dissolving it in an appropriate vehicle (e.g. buffer or DMSO) to a final concentration of 1 mg/mL. Both, the control and sample were analyzed by reversed phase chromatography. The area under the peak of the sample was compared to the control and the solubility was calculated based on that ratio. The pH was measured and recorded for each sample.

[4] = target: T2, human NMUR1 receptor (Homo sapiens, UniProt Q9HB89); assay: IP1 Gq HTRF assay, activation of human NMUR1 in buffer; format: cell-based; settings: CHO-K1 cells expressing human NMUR1, stimulation buffer with 0.1% BSA; read-out: EC50 (hNMUR1) buffer
T2 construct: expressed in transfected cells; host or cells: CHO-K1
T2 sequence (Q9HB89 1-426): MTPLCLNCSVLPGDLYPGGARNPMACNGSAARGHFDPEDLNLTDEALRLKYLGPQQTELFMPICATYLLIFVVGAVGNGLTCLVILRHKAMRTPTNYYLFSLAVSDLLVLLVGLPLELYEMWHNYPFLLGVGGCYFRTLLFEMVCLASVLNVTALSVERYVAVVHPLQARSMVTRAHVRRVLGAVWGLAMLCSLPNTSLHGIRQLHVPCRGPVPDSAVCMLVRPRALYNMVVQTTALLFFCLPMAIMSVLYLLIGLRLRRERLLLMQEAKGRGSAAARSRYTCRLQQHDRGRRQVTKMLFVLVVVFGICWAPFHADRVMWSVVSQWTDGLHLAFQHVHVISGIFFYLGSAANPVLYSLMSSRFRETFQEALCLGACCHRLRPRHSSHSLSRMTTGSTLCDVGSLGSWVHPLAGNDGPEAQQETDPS
Method in brief: as §1

T1 sequence (Q9GZQ4 whole entry): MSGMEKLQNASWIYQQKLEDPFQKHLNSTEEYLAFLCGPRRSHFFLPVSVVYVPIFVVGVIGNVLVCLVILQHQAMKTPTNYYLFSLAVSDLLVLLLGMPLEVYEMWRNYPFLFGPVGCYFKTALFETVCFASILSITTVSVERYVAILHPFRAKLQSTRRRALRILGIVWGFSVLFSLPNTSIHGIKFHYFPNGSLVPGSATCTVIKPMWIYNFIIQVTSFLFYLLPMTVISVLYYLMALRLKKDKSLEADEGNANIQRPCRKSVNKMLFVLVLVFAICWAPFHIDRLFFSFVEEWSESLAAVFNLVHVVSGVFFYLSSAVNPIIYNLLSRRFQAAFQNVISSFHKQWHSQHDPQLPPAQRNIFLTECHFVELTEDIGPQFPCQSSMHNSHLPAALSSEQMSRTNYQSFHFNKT

Compound	pKi [1]	pEC50 [2]	solubility at 2 h ([3]; pH 7.3) [µg/mL]	pEC50 [4]	solubility at 2 h ([3]; pH 7.2) [µg/mL]
CCCC[C@H](NC(=O)[C@H](CC(C)C)N(C)C(=O)[C@H](Cc1ccccc1)NC(=O)[C@H](Cc1ccc(O)cc1)NC(=O)CN1CCN(CCNC(=O)CN(C)C(=O)CN(C)C(=O)CN(C)C(=O)CN(C)C(=O)CN(C)C(=O)CN(C)C(=O)CN(C)C(=O)CN(C)C(=O)CN(C)C(=O)CN(C)C(=O)CN(C)C(=O)CN(C)C(=O)CN(C)C(=O)CN(C)C(=O)CN(C)C(=O)CC[C@H](NC(=O)CC[C@H](NC(=O)CC[C@H](NC(=O)CCCCCCCCCCCCCCCCC(=O)O)C(=O)O)C(=O)O)C(=O)O)CC1)C(=O)N[C@@H](CCCN)C(=O)N(C)[C@@H](C)C(=O)N[C@@H](CCCNC(=N)N)C(=O)NCC(N)=O [Compound 22, C18DA-gGlu3-Sar15-AEPipAc-Tyr-Phe-NMeLeu-Nle-Orn-NMeAla-Arg-Gly-NH2] (HELM PEPTIDE1{[O=C(O)CCCCCCCCCCCCCCCCC(=O)[*:2]].[gGlu].[gGlu].[gGlu].[Sar].[Sar].[Sar].[Sar].[Sar].[Sar].[Sar].[Sar].[Sar].[Sar].[Sar].[Sar].[Sar].[Sar].[Sar].[O=C(CN1CCN(CCN[*:1])CC1)[*:2]].Y.F.[meL].[Nle].[Orn].[meA].R.G.[am]}$$$$V2.0)	7.34	8.49	8600 (≈ 2.97 mM)	< 6.00	
CCCC[C@H](NC(=O)[C@H](CC(C)C)N(C)C(=O)[C@H](Cc1ccccc1)NC(=O)[C@H](Cc1ccc(O)cc1)NC(=O)CN1CCN(CCNC(=O)CN(C)C(=O)CN(C)C(=O)CN(C)C(=O)CN(C)C(=O)CN(C)C(=O)CN(C)C(=O)CN(C)C(=O)CN(C)C(=O)CN(C)C(=O)CN(C)C(=O)CN(C)C(=O)CN(C)C(=O)CN(C)C(=O)CN(C)C(=O)CN(C)C(=O)CC[C@H](NC(=O)CC[C@H](NC(=O)CC[C@H](NC(=O)CCCCCCCCCCCCCCCCC(=O)O)C(=O)O)C(=O)O)C(=O)O)CC1)C(=O)N[C@@H](CCN)C(=O)N(C)[C@@H](C)C(=O)N[C@@H](CCCNC(=N)N)C(=O)NCC(N)=O [Compound 23, C18DA-gGlu3-Sar15-AEPipAc-Tyr-Phe-NMeLeu-Nle-Dbu-NMeAla-Arg-Gly-NH2] (HELM PEPTIDE1{[O=C(O)CCCCCCCCCCCCCCCCC(=O)[*:2]].[gGlu].[gGlu].[gGlu].[Sar].[Sar].[Sar].[Sar].[Sar].[Sar].[Sar].[Sar].[Sar].[Sar].[Sar].[Sar].[Sar].[Sar].[Sar].[O=C(CN1CCN(CCN[*:1])CC1)[*:2]].Y.F.[meL].[Nle].[Dab].[meA].R.G.[am]}$$$$V2.0)	7.41	8.48	8900 (≈ 3.08 mM)	< 6.00	
CCCC[C@H](NC(=O)[C@H](CC(C)C)N(C)C(=O)[C@H](Cc1ccccc1)NC(=O)[C@H](Cc1ccc(O)cc1)NC(=O)CN1CCN(CCNC(=O)CN(C)C(=O)CN(C)C(=O)CN(C)C(=O)CN(C)C(=O)CN(C)C(=O)CN(C)C(=O)CN(C)C(=O)CN(C)C(=O)CN(C)C(=O)CC[C@H](NC(=O)CC[C@H](NC(=O)CC[C@H](NC(=O)CCCCCCCCCCCCCCCCC(=O)O)C(=O)O)C(=O)O)C(=O)O)CC1)C(=O)N[C@@H](CCN)C(=O)N1CCC[C@H]1C(=O)N[C@@H](CCCNC(=N)N)C(=O)NCC(N)=O [Compound 24, C18DA-gGlu3-Sar9-AEPipAc-Tyr-Phe-NMeLeu-Nle-Dbu-Pro-Arg-Gly-NH2] (HELM PEPTIDE1{[O=C(O)CCCCCCCCCCCCCCCCC(=O)[*:2]].[gGlu].[gGlu].[gGlu].[Sar].[Sar].[Sar].[Sar].[Sar].[Sar].[Sar].[Sar].[Sar].[O=C(CN1CCN(CCN[*:1])CC1)[*:2]].Y.F.[meL].[Nle].[Dab].P.R.G.[am]}$$$$V2.0)	7.28	8.85	9500 (≈ 3.84 mM)	6.00	
CCCC[C@H](NC(=O)[C@H](CC(C)C)N(C)C(=O)[C@H](Cc1ccccc1)NC(=O)[C@H](Cc1ccc(O)cc1)NC(=O)CN1CCN(CCNC(=O)CN(C)C(=O)CN(C)C(=O)CN(C)C(=O)CN(C)C(=O)CN(C)C(=O)CN(C)C(=O)CN(C)C(=O)CN(C)C(=O)CN(C)C(=O)CN(C)C(=O)CN(C)C(=O)CN(C)C(=O)CC[C@H](NC(=O)CC[C@H](NC(=O)CC[C@H](NC(=O)CCCCCCCCCCCCCCCCC(=O)O)C(=O)O)C(=O)O)C(=O)O)CC1)C(=O)N[C@@H](CCCNC(=N)N)C(=O)N1CCC[C@H]1C(=O)N[C@@H](CCCNC(=N)N)C(=O)NCC(N)=O [Compound 25, C18DA-gGlu3-Sar12-AEPipAc-Tyr-Phe-NMeLeu-Nle-Arg-Pro-Arg-Gly-NH2]	7.64	8.96		6.70	10000 (≈ 3.65 mM)
CCCC[C@H](NC(=O)[C@H](CC(C)C)N(C)C(=O)[C@H](Cc1ccccc1)NC(=O)[C@H](Cc1ccc(O)cc1)NC(=O)CN1CCN(CCNC(=O)CN(C)C(=O)CN(C)C(=O)CN(C)C(=O)CN(C)C(=O)CN(C)C(=O)CN(C)C(=O)CN(C)C(=O)CN(C)C(=O)CN(C)C(=O)CN(C)C(=O)CN(C)C(=O)CN(C)C(=O)CN(C)C(=O)CN(C)C(=O)CN(C)C(=O)CC[C@H](NC(=O)CC[C@H](NC(=O)CC[C@H](NC(=O)CCCCCCCCCCCCCCCCC(=O)O)C(=O)O)C(=O)O)C(=O)O)CC1)C(=O)N[C@@H](CCN)C(=O)N1CCC[C@H]1C(=O)N[C@@H](CCCNC(=N)N)C(=O)NCC(N)=O [Compound 26, C18DA-gGlu3-Sar15-AEPipAc-Tyr-Phe-NMeLeu-Nle-Dbu-Pro-Arg-Gly-NH2] (HELM PEPTIDE1{[O=C(O)CCCCCCCCCCCCCCCCC(=O)[*:2]].[gGlu].[gGlu].[gGlu].[Sar].[Sar].[Sar].[Sar].[Sar].[Sar].[Sar].[Sar].[Sar].[Sar].[Sar].[Sar].[Sar].[Sar].[Sar].[O=C(CN1CCN(CCN[*:1])CC1)[*:2]].Y.F.[meL].[Nle].[Dab].P.R.G.[am]}$$$$V2.0)	7.32	8.82	7700 (≈ 2.66 mM)	< 6.00	
CCCC[C@H](NC(=O)[C@H](CC(C)C)N(C)C(=O)[C@H](Cc1ccccc1)NC(=O)[C@H](Cc1ccc(O)cc1)NC(=O)CN1CCN(CCNC(=O)CN(C)C(=O)CN(C)C(=O)CN(C)C(=O)CN(C)C(=O)CN(C)C(=O)CN(C)C(=O)CN(C)C(=O)CN(C)C(=O)CN(C)C(=O)CN(C)C(=O)CN(C)C(=O)CN(C)C(=O)CC[C@H](NC(=O)CC[C@H](NC(=O)CC[C@H](NC(=O)CCCCCCCCCCCCCCCCC(=O)O)C(=O)O)C(=O)O)C(=O)O)CC1)C(=O)N[C@@H](CCN)C(=O)N1CCC[C@H]1C(=O)N[C@@H](CCCNC(=N)N)C(=O)NCC(N)=O [Compound 27, C18DA-gGlu3-Sar12-AEPipAc-Tyr-Phe-NMeLeu-Nle-Dbu-Pro-Arg-Gly-NH2]	7.63	8.92		5.77	8800 (≈ 3.28 mM)

— patent US20240279278A1, “NMU RECEPTOR 2 AGONISTS” (Boehringer Ingelheim International GmbH, priority 2023, published 2024)
